In publication PMC5908784, “Extracellular loops 2 and 3 of the calcitonin receptor selectively modify agonist binding and efficacy” (Biochemical Pharmacology, 2018):
Substitutions are numbered along the chain they refer to. Where a SMILES comes first, the peptide text is derived from it. Bridges are numbered along the chain shown (N, C = ends).

Experiments:
Assay in all cases: cAMP accumulation
Format in all cases: cell-based
[1] = molecular target: T1, hCTR M376A (Homo sapiens, UniProt P30988, M376A); conditions: mean ± S.E.M.; for Emax: cAMP maximal response, SEM; for EC50: cAMP, CV1-FlpIn cells, 30 min, IBMX
T1 construct: c-Myc (N); expressed in transfected cells
T1 sequence (P30988 25-474 M376A): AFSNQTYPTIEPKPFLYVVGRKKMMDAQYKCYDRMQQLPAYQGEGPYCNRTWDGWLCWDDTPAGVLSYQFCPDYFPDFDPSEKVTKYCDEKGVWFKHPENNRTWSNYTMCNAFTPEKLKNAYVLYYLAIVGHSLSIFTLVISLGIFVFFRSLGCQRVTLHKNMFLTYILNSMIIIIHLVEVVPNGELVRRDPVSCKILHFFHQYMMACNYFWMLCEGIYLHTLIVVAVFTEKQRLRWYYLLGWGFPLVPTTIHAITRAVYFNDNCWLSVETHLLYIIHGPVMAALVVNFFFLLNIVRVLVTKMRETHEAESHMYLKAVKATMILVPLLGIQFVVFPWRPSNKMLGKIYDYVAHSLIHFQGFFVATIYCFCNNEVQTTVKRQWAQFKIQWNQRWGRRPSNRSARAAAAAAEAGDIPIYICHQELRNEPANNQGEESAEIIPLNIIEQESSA
Procedure, shortened: (§1)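 For each mutant, cAMP generated during a 30 min ligand exposure with IBMX is reported as a fraction of the 100 μM forskolin maximum. Cells were ethanol-extracted and dried at room temperature prior to measurement.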

[2] = molecular target: T2, hCTR P363A (Homo sapiens, UniProt P30988, P363A); conditions: mean ± S.E.M.; for Emax: cAMP maximal response, SEM; for EC50: cAMP, CV1-FlpIn cells, 30 min, IBMX
T2 construct: expressed in transfected cells
T2 sequence (P30988 25-474 P363A): T1 sequence (P30988 25-474 M376A) with P339A, A352M
Procedure, shortened: as §1

[3] = molecular target: T3, hCTR D287A (Homo sapiens, UniProt P30988, D287A); conditions: mean ± S.E.M.; for Emax: cAMP maximal response, SEM
T3 construct: c-Myc (N); expressed in transfected cells
T3 sequence (P30988 25-474 D287A): T1 sequence (P30988 25-474 M376A) with D263A, A352M
Procedure, shortened: as §1

[4] = molecular target: T4, hCTR L298A (Homo sapiens, UniProt P30988, L298A); conditions: mean ± S.E.M.; for Emax: cAMP maximal response, SEM; for EC50: cAMP, CV1-FlpIn cells, 30 min, IBMX
T4 construct: c-Myc (N); expressed in transfected cells
T4 sequence (P30988 25-474 L298A): T1 sequence (P30988 25-474 M376A) with L274A, A352M
Procedure, shortened: as §1

[5] = molecular target: T5, hCTR G369A (Homo sapiens, UniProt P30988, G369A); conditions: mean ± S.E.M.; for Emax: cAMP maximal response, SEM; for EC50: cAMP, CV1-FlpIn cells, 30 min, IBMX
T5 construct: c-Myc (N); expressed in transfected cells
T5 sequence (P30988 25-474 G369A): T1 sequence (P30988 25-474 M376A) with G345A, A352M
Procedure, shortened: as §1

Row | EC50 [1] [nM] | EC50 [2] [nM] | EC50 [4] [nM] | EC50 [5] [nM] | EC50 ([3]; cAMP, CV1-FlpIn cells, 30 min, IBMX) [nM] | Compound | Emax [1] [%] | Emax [2] [%] | Emax [3] [%] | Emax [4] [%] | Emax [5] [%]
1 | – | – | – | – | – | CC[C@H](C)[C@H](NC(=O)[C@H](C)NC(=O)[C@@H](NC(=O)[C@H](CCC(N)=O)NC(=O)[C@@H]1CCCN1C(=O)[C@H](Cc1ccccc1)NC(=O)[C@@H](NC(=O)[C@H](Cc1c[nH]cn1)NC(=O)[C@H](Cc1ccccc1)NC(=O)[C@H](CCCCN)NC(=O)[C@H](CC(N)=O)NC(=O)[C@H](Cc1ccccc1)NC(=O)[C@H](CC(=O)O)NC(=O)[C@H](CCC(N)=O)NC(=O)[C@@H](NC(=O)[C@H](Cc1ccc(O)cc1)NC(=O)[C@@H](NC(=O)CNC(=O)[C@H](CC(C)C)NC(=O)[C@H](CCSC)NC(=O)[C@@H]1CSSC[C@H](N)C(=O)NCC(=O)N[C@@H](CC(N)=O)C(=O)N[C@@H](CC(C)C)C(=O)N[C@@H](CO)C(=O)N[C@@H]([C@@H](C)O)C(=O)N1)[C@@H](C)O)[C@@H](C)O)[C@@H](C)O)[C@@H](C)O)C(=O)NCC(=O)N[C@H](C(=O)NCC(=O)N[C@@H](C)C(=O)N1CCC[C@H]1C(N)=O)C(C)C [hCT] | 84.3 ± 10 | 111 ± 5 | 140 ± 18 | 103 ± 6 | 129 ± 9
2 | 141 | 38.9 | 33.9 | 24.5 | – | CC(C)C[C@H](NC(=O)CNC(=O)[C@H](C)NC(=O)[C@H](CC(C)C)NC(=O)[C@H](CCCNC(=N)N)NC(=O)[C@H](Cc1cnc[nH]1)NC(=O)[C@@H](NC(=O)[C@@H](NC(=O)[C@@H]1CSSC[C@H](NC(=O)[C@H](C)N)C(=O)N[C@@H](CC(=O)O)C(=O)N[C@@H]([C@@H](C)O)C(=O)N[C@@H](C)C(=O)N[C@@H]([C@@H](C)O)C(=O)N1)C(C)C)[C@@H](C)O)C(=O)N[C@@H](CC(C)C)C(=O)N[C@@H](CO)C(=O)N[C@@H](CCCNC(=N)N)C(=O)N[C@@H](CO)C(=O)NCC(=O)NCC(=O)N[C@H](C(=O)N[C@H](C(=O)N[C@@H](CCCCN)C(=O)N[C@@H](CC(N)=O)C(=O)N[C@@H](CC(N)=O)C(=O)N[C@@H](Cc1ccccc1)C(=O)N[C@H](C(=O)N1CCC[C@H]1C(=O)N[C@H](C(=O)N[C@@H](CC(N)=O)C(=O)N[C@H](C(=O)NCC(=O)N[C@@H](CO)C(=O)N[C@@H](CCCCN)C(=O)N[C@@H](C)C(=O)N[C@@H](Cc1ccccc1)C(N)=O)C(C)C)[C@@H](C)O)C(C)C)C(C)C)C(C)C [hαCGRP] | 47 ± 7 | 38 ± 7 | – | 109 ± 17 | 131 ± 20
3 | 0.234 | 0.389 | 0.0631 | 0.204 | 1.91 | CSCC[C@H](NC(=O)CNC(=O)[C@H](CO)NC(=O)[C@H](Cc1ccccc1)NC(=O)[C@H](CCCNC(=N)N)NC(=O)[C@H](Cc1c[nH]cn1)NC(=O)[C@H](Cc1ccccc1)NC(=O)[C@H](CC(N)=O)NC(=O)[C@H](CC(N)=O)NC(=O)[C@H](CC(C)C)NC(=O)[C@H](CC(N)=O)NC(=O)[C@H](CCCNC(=N)N)NC(=O)[C@H](Cc1c[nH]c2ccccc12)NC(=O)[C@H](Cc1ccc(O)cc1)NC(=O)[C@H](C)NC(=O)[C@H](CO)NC(=O)[C@H](CC(C)C)NC(=O)[C@@H](NC(=O)[C@@H]1CSSC[C@H](N)C(=O)N[C@@H](CO)C(=O)N[C@@H](CC(N)=O)C(=O)N[C@@H](CC(C)C)C(=O)N[C@@H](CO)C(=O)N[C@@H]([C@@H](C)O)C(=O)N1)C(C)C)C(=O)NCC(=O)N[C@@H](Cc1ccccc1)C(=O)NCC(=O)N1CCC[C@H]1C(=O)N[C@@H](CCC(=O)O)C(=O)N[C@H](C(=O)N1CCC[C@H]1C(N)=O)[C@@H](C)O [pCT] (H-CSNLSTCVLSAYWRNLNNFHRFSGMGFGPETP-NH2; disulfide 1-7) | 87 ± 11 | 148 ± 15 | 74 ± 9 | 118 ± 7 | 89 ± 7
4 | – | – | – | – | – | CC(C)C[C@H](NC(=O)[C@H](CC(N)=O)NC(=O)[C@H](CC(N)=O)NC(=O)[C@H](CO)NC(=O)[C@H](CO)NC(=O)[C@H](CCCNC(=N)N)NC(=O)[C@@H](NC(=O)[C@H](CC(C)C)NC(=O)[C@H](Cc1ccccc1)NC(=O)[C@H](CC(N)=O)NC(=O)[C@H](C)NC(=O)[C@H](CC(C)C)NC(=O)[C@H](CCCNC(=N)N)NC(=O)[C@H](CCC(N)=O)NC(=O)[C@@H](NC(=O)[C@H](C)NC(=O)[C@@H]1CSSC[C@H](NC(=O)[C@@H](N)CCCCN)C(=O)N[C@@H](CC(N)=O)C(=O)N[C@@H]([C@@H](C)O)C(=O)N[C@@H](C)C(=O)N[C@@H]([C@@H](C)O)C(=O)N1)[C@@H](C)O)C(C)C)C(=O)NCC(=O)N1CCC[C@H]1C(=O)N[C@H](C(=O)N[C@@H](CC(C)C)C(=O)N1CCC[C@H]1C(=O)N1CCC[C@H]1C(=O)N[C@H](C(=O)N[C@@H](CC(N)=O)C(=O)N[C@H](C(=O)NCC(=O)N[C@@H](CO)C(=O)N[C@@H](CC(N)=O)C(=O)N[C@H](C(=O)N[C@@H](Cc1ccc(O)cc1)C(N)=O)[C@@H](C)O)C(C)C)[C@@H](C)O)C(C)C [rAmy] | 85 ± 13 | 94 ± 20 | – | 117 ± 13 | 78 ± 6
5 | – | – | – | – | – | CC(C)C[C@H](NC(=O)[C@H](CCCCN)NC(=O)CNC(=O)[C@H](CC(C)C)NC(=O)[C@@H](NC(=O)[C@@H]1CSSC[C@H](N)C(=O)N[C@@H](CO)C(=O)N[C@@H](CC(N)=O)C(=O)N[C@@H](CC(C)C)C(=O)N[C@@H](CO)C(=O)N[C@@H]([C@@H](C)O)C(=O)N1)C(C)C)C(=O)N[C@@H](CO)C(=O)N[C@@H](CCC(N)=O)C(=O)N[C@@H](CCC(=O)O)C(=O)N[C@@H](CC(C)C)C(=O)N[C@@H](Cc1c[nH]cn1)C(=O)N[C@@H](CCCCN)C(=O)N[C@@H](CC(C)C)C(=O)N[C@@H](CCC(N)=O)C(=O)N[C@H](C(=O)N[C@@H](Cc1ccc(O)cc1)C(=O)N1CCC[C@H]1C(=O)N[C@@H](CCCNC(=N)N)C(=O)N[C@H](C(=O)N[C@@H](CC(N)=O)C(=O)N[C@H](C(=O)NCC(=O)N[C@@H](CO)C(=O)NCC(=O)N[C@H](C(=O)N1CCC[C@H]1C(N)=O)[C@@H](C)O)[C@@H](C)O)[C@@H](C)O)[C@@H](C)O [sCT] | 102 ± 6 | 111 ± 9 | 119 ± 7 | 112 ± 9 | 106 ± 8
